What was measured:
Assay type in all cases: in vivo, male KK mice
diet-induced obese mice [1] = experiment: Test Example 3: Oligonol and caffeine fed in low-calorie feed to diet-induced obese mice; conditions: vs control group, caffeine 0.025 mass %, Oligonol 0.1 mass %, mixture 0.1+0.025 mass %
Description: As the polyphenol containing 15 mass % or more of proanthocyanidin having a polymerization degree of 1 to 3 and caffeine, “Oligonol (trade name)” (distributor: […] Five-week-old male KK mice were fed with water and a powder feed for breeding (CE-2 (trade name), made by CLEA Japan, Inc.) for one week, and then fed with the high-calorie feed (4.70 kcal/g) in Table 1 for 3 weeks for induction of obesity. […] The feeds given to the test groups are as follows. • (1) Control group; low-calorie feed • (2) Caffeine administration group; low-calorie feed+0.025 mass % of caffeine • (3) Oligonol administration group; low-calorie feed+0.1 mass % of Oligonol • (4) Present invention (mixture of Oligonol and caffeine (4:1)) administration group; low-calorie feed+(0.1 mass % of Oligonol+0.025 mass % of caffeine) During the test period (2 weeks from the start of low-calorie feeding), body weight and feed intake were periodically measured. After the end of the test, the mice were euthanized, and subcutaneous fat tissue, epididymal fat tissue, and mesenteric (visceral) fat tissue were removed and separately weighed. Also, at the start of the test period (the start of low-calorie feeding) and the end of the test period, plasma triglyceride level was measured. The changes in body weight before and after the test period is shown in FIG. 8, the feed intake during the first 10 days of the test period is shown in FIG. 9, the total weight of subcutaneous, epididymal, and mesenteric fat tissues per 100 g of body weight is shown in FIG. 10, and the changes in plasma triglyceride level before and after the test period is shown in FIG. 11. The results are shown as Mean±SD of each group.

diet-induced obese mice [2] = experiment: Test Example 1: glucosyl hesperidin and caffeine fed in low-calorie feed to diet-induced obese mice; conditions: vs control group, caffeine 0.025 mass %, glucosyl hesperidin 0.25 mass %, mixture 0.25+0.025 mass %; for weight of mesenteric (visceral) fat tissue: 2 weeks low-calorie feed, FIG. 3; for changes in body weight: before and after 2 weeks low-calorie feed, FIG. 1
Description: In such a situation, the effect of the composition of the present invention comprising glucosyl hesperidin and caffeine was investigated. As the glucosyl hesperidin and caffeine, “Hayashibara Hesperidin S (trade name)” (distributor: Hayashibara Co., Ltd.) and “Chanomoto (trade name)” (purity of caffeine: 98.5%, made by Shiratori Pharmaceutical Co., Ltd.) were used, respectively.
Five-week-old male KK mice were fed with water and a powder feed for breeding (CE-2 (trade name), made by CLEA Japan, Inc.) for one week, and then fed with the high-calorie feed (4.70 kcal/g) in Table 1 shown below for 3 weeks for induction of obesity. The mice were divided into 4 groups (a control group, a caffeine administration group, a glucosyl hesperidin administration group, and a present invention administration group (caffeine+glucosyl hesperidin), 5 to 8 mice per group) and fed with the low-calorie feed (3.16 kcal/g) in Table 1 shown below or the low-calorie feed supplemented with the corresponding test sample for 2 weeks, in expectation of using body fat. The feeds given to the test groups are as follows. • (1) Control group; low-calorie feed • (2) Caffeine administration group; low-calorie feed+0.025 mass % of caffeine • (3) Glucosyl hesperidin administration group; low-calorie feed+0.25 mass % of glucosyl hesperidin • (4) Present invention (mixture of glucosyl hesperidin and caffeine (10:1)) administration group; low-calorie feed+(0.25 mass % of glucosyl hesperidin+0.025 mass % of caffeine)
During the test period (2 weeks from the start of low-calorie feeding), body weight and feed intake were periodically measured. After the end of the test, the mice were euthanized, and mesenteric (visceral) fat tissue was removed and weighed.
The changes in body weight before and after the test period is shown in FIG. 1, the feed intake during the first 10 days of the test period is shown in FIG. 2, and the weight of mesenteric fat tissue per 100 g of body weight is shown in FIG. 3. The results are shown as Mean±SD of each group. The ** and * in the figures indicate a significant difference with a risk less than 1% and a risk less than 5% from the control, respectively.

diet-induced obese mice [3] = experiment: Test Example 2: glucosyl hesperidin and caffeine mixtures (10:1, 20:1, 40:1) fed in low-calorie feed to diet-induced obese mice; conditions: vs control group, caffeine 0.0125 mass %, glucosyl hesperidin 0.25 mass %; for weight of subcutaneous fat tissue / weight of mesenteric (visceral) fat tissue: 2 weeks low-calorie feed; for weight of subcutaneous fat tissue: FIG. 6; for weight of mesenteric (visceral) fat tissue: FIG. 7; for changes in body weight: before and after 2 weeks low-calorie feed, FIG. 4
Description: Under the same conditions as in Test Example 1, the effect of the composition of the present invention comprising glucosyl hesperidin and caffeine was investigated. The glucosyl hesperidin and caffeine used here were the same as in Test Example 1.
Five-week-old male KK mice were fed with water and a powder feed for breeding (CE-2 (trade name), made by CLEA Japan, Inc.) for one week, and then fed with the high-calorie feed (4.70 kcal/g) in Table 1 for 3 weeks for induction of obesity. The mice were divided into 6 groups (a control group, a caffeine administration group, a glucosyl hesperidin administration group, and mixture of caffeine and glucosyl hesperidin (present invention) administration groups, 6 to 7 mice per group) and fed with the low-calorie feed (3.16 kcal/g) in Table 1 or the low-calorie feed supplemented with the corresponding test sample for 2 weeks, in expectation of using body fat. The feeds given to the test groups are as follows. • (1) Control group; low-calorie feed • (2) Caffeine administration group; low-calorie feed+0.0125 mass % of caffeine • (3) Glucosyl hesperidin administration group; low-calorie feed+0.25 mass % of glucosyl hesperidin • (4) Mixture of glucosyl hesperidin and caffeine (10:1) administration group; low-calorie feed+(0.25 mass % of glucosyl hesperidin+0.025 mass % of caffeine) • (5) Mixture of glucosyl hesperidin and caffeine (20:1) administration group; low-calorie feed+(0.25 mass % of glucosyl hesperidin+0.0125 mass % of caffeine) • (6) Mixture of glucosyl hesperidin and caffeine (40:1) administration group; low-calorie feed+(0.25 mass % of glucosyl hesperidin+0.00625 mass % of caffeine)
During the test period (2 weeks from the start of low-calorie feeding), body weight and feed intake were periodically measured. After the end of the test, the mice were euthanized, and subcutaneous fat tissue and mesenteric (visceral) fat tissue were removed and separately weighed.
The changes in body weight before and after the test period is shown in FIG. 4, the feed intake during the first 10 days of the test period is shown in FIG. 5, the weight of subcutaneous fat tissue per 100 g of body weight is shown in FIG. 6, and the weight of mesenteric fat tissue per 100 g of body weight is shown in FIG. 7. The results are shown as Mean±SD of each group. The $, **, and * in the figures indicate a significant difference with a risk less than 10%, a risk less than 1%, and a risk less than 5% from the control, respectively.

Compound | total weight of fat tissues (subcutaneous, epididymal, and mesenteric) (diet-induced obese mice [1]; 2 weeks low-calorie feed, FIG. 10) | plasma triglyceride level measured on the 14th day (diet-induced obese mice [1]; 14th day of low-calorie feed, FIG. 11) | changes in body weight (diet-induced obese mice [1]; before and after 2 weeks low-calorie feed, FIG. 8) | weight of mesenteric (visceral) fat tissue (diet-induced obese mice [2]) | changes in body weight (diet-induced obese mice [2]) | weight of subcutaneous fat tissue (diet-induced obese mice [3]) | weight of mesenteric (visceral) fat tissue (diet-induced obese mice [3]) | changes in body weight (diet-induced obese mice [3])
Cn1c(=O)c2c(ncn2C)n(C)c1=O [caffeine] | did not show any significant difference | did not show any significant difference | lower values | did not show any significant difference | significantly lower values | did not show any significant difference | did not show any significant difference | values equivalent to those of the control group
glucosyl hesperidin | – | – | – | did not show any significant difference | equivalent values | did not show any significant difference | did not show any significant difference | values equivalent to those of the control group
